Test results reported in US20250313572A1, “MACROCYCLIC MCL-1 INHIBITORS AND METHODS OF USE” (AbbVie Inc., priority 2017, published 2025).
Like-named read-outs stand apart in the source and are kept apart here. Marks after values point to notes of the source that are not given here.

Key:
[1] = test system: AMO-1 human multiple myeloma tumor cell line; test: AMO-1 cell viability assay (CellTiter-Glo, 24 hours); format: cell-based; details: Homo sapiens, AMO1, 24 h, read-out: AMO-1 Viability IC50 (μM, 10% FBS), 10% FBS, 24 hours of compound treatment
AMO-1 xenograft = AMO-1 xenograft model of multiple myeloma; format: in vivo, female SCID/bg mice; details: 25 mg/kg/day, IP/QDx1
Method: Tumors were size matched at approximately 200 mm^3. […] Tumor volume was estimated two to three times weekly. […] Seven or eight mice were housed per cage. Food and water were available ad libitum.
Tumor growth inhibition is calculated by 100*(1−Tv/Cv) where Tv and Cv are the mean tumor volumes of the treated and control groups, respectively.

[2] = test system: NCI-H929 human multiple myeloma tumor cell line; test: NCI-H929 cell viability assay (CellTiter-Glo, 24 hours); format: cell-based; details: Homo sapiens, NCI-H929, 24 h, read-out: H929 Viability IC50 (μM, 10% FBS), 10% FBS, 24 hours of compound treatment
GST-MCL-1 = GST-MCL-1 (Homo sapiens, UniProt Q07820); test: TR-FRET MCL-1 binding assay (competition with probe F-Bak)
Chain of GST-MCL-1 (Q07820 whole entry): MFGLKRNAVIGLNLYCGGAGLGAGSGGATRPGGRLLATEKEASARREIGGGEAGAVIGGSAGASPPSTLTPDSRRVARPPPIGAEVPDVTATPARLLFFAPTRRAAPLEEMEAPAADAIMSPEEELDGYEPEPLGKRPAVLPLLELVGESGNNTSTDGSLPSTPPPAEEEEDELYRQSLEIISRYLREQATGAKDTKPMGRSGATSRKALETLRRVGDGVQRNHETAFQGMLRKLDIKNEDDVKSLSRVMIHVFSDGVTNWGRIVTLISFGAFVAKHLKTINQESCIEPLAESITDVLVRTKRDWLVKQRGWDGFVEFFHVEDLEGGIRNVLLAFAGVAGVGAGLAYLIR
Summary of the method: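 Test compounds, 11 three-fold dilutions from 25 μM final, incubated 2 hours at room temperature with GST-MCL-1, F-Bak probe and Tb-anti-GST antibody. TR-FRET read at 340/35 nm excitation with 520/525 and 495/510 nm emission. Run without human serum and with 10% HS.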

[3] = MCL-1 Binding Ki (nM, 10% HS), in the presence of 10% HS (human serum)
[4] = without HS, read-out: MCL-1 Binding Ki

In the case of `COCCOCCOCCOCCN1CCN(C[C@@H]2COc3ccc(OCc4ccnc(-c5ccccc5OC)n4)c(c3)C[C@H](C(=O)O)Oc3ncnc4sc(-c5ccc(F)cc5)c(c34)-c3ccc(c(Cl)c3C)O2)CC1` (atropisomer, axis not shown) [Example 4, (7R,16R,21S)-19-chloro-1-(4-fluorophenyl)-10-{[2-(2-methoxyphenyl)pyrimidin-4-yl]methoxy}-20-methyl-16-{[4-(2,5,8,11-tetraoxatridecan-13-yl)piperazin-1-yl]methyl}-7,8,15,16-tetrahydro-18,21-etheno-13,9-(metheno)-6,14,17-trioxa-2-thia-3,5-diazacyclononadeca[1,2,3-cd]indene-7-carboxylic Acid], the IC50 [1] is reported as 0.007 µM, the “TGD (%)” value (AMO-1 xenograft) is reported as 33* % and the “TGImax (%)” value (AMO-1 xenograft) is reported as 54* %. It also gave an IC50 [2] of 0.011 µM, a Ki (GST-MCL-1; [3]) of 0.052 nM and a Ki (GST-MCL-1; [4]) of 0.007 nM.
With `Cc1c(Cl)c2c(Cl)c(C)c1-c1c(-c3ccc(F)cc3)sc3ncnc(c13)O[C@@H](C(=O)O)Cc1cc(ccc1OCc1ccnc(-c3ccc(OCCN4C[C@H]5COC[C@H]5C4)cc3)n1)OC[C@@H](CN1CCN(C)CC1)O2` [Example 164, (7R,16R)-19,23-dichloro-1-(4-fluorophenyl)-20,22-dimethyl-16-[(4-methylpiperazin-1-yl)methyl]-10-{[2-(4-{2-[(3aR,6aS)-tetrahydro-1H-furo[3,4-c]pyrrol-5 (3H)-yl]ethoxy}phenyl)pyrimidin-4-yl]methoxy}-7,8,15,16-tetrahydro-18,21-etheno-13,9-(metheno)-6,14,17-trioxa-2-thia-3,5-diazacyclononadeca[1,2,3-cd]indene-7-carboxylic Acid] the IC50 [1] was 0.000416 µM, the IC50 [2] was 0.00147 µM and the Ki (GST-MCL-1; [3]) was 0.453 nM. It also gave a Ki (GST-MCL-1; [4]) of 0.061 nM.
`Cc1c(Cl)c2c(Cl)c(C)c1-c1c(-c3ccc(F)cc3)sc3ncnc(c13)O[C@@H](C(=O)O)Cc1cc(ccc1OCc1ccnc(-c3ccc(OCCN4CC5(COC5)C4)cc3)n1)OC[C@@H](CN1CCN(C)CC1)O2` [Example 165, (7R,16R)-19,23-dichloro-1-(4-fluorophenyl)-20,22-dimethyl-16-[(4-methylpiperazin-1-yl)methyl]-10-[(2-{4-[2-(2-oxa-6-azaspiro[3.3]heptan-6-yl)ethoxy]phenyl}pyrimidin-4-yl)methoxy]-7,8,15,16-tetrahydro-18,21-etheno-13,9-(metheno)-6,14,17-trioxa-2-thia-3,5-diazacyclononadeca[1,2,3-cd]indene-7-carboxylic Acid] showed an IC50 [1] of 0.00353 µM, an IC50 [2] of 0.00856 µM and a Ki (GST-MCL-1; [3]) of 0.267 nM. For the same molecule, the Ki (GST-MCL-1; [4]) was 0.031 nM.
Molecule `Cc1c(Cl)c2c(Cl)c(C)c1-c1c(-c3ccc(F)cc3)sc3ncnc(c13)O[C@@H](C(=O)O)Cc1cc(ccc1OCc1ccnc(-c3ccc(CCN4CC5COCC5C4)cc3)n1)OC[C@@H](CN1CCN(C)CC1)O2` (stereo partly drawn) [Example 166, (7R,16R)-19,23-dichloro-1-(4-fluorophenyl)-20,22-dimethyl-16-[(4-methylpiperazin-1-yl)methyl]-10-[(2-{4-[2-(tetrahydro-1H-furo[3,4-c]pyrrol-5 (3H)-yl)ethyl]phenyl}pyrimidin-4-yl)methoxy]-7,8,15,16-tetrahydro-18,21-etheno-9,13-(metheno)-6,14,17-trioxa-2-thia-3,5-diazacyclononadeca[1,2,3-cd]indene-7-carboxylic Acid] has an IC50 [1] of 0.000927 µM, an IC50 [2] of 0.0032 µM and a Ki (GST-MCL-1; [3]) of 0.058 nM. For the same molecule, the Ki (GST-MCL-1; [4]) was 0.002 nM.
Molecule `Cc1c(Cl)c2c(Cl)c(C)c1-c1c(-c3ccc(F)cc3)sc3ncnc(c13)O[C@@H](C(=O)O)Cc1cc(ccc1OCc1ccnc(N3C[C@H]4C[C@@H](C3)[C@H]4O)n1)OC[C@@H](CN1CCN(C)CC1)O2` [Example 167, (7R,16R)-19,23-dichloro-1-(4-fluorophenyl)-10-({2-[(1R,5S,6r)-6-hydroxy-3-azabicyclo[3.1.1]heptan-3-yl]pyrimidin-4-yl}methoxy)-20,22-dimethyl-16-[(4-methylpiperazin-1-yl)methyl]-7,8,15,16-tetrahydro-18,21-etheno-13,9-(metheno)-6,14,17-trioxa-2-thia-3,5-diazacyclononadeca[1,2,3-cd]indene-7-carboxylic Acid] has an IC50 [1] of 0.002 µM, an IC50 [2] of 0.00892 µM and a Ki (GST-MCL-1; [3]) of 0.698 nM. For the same molecule, the Ki (GST-MCL-1; [4]) was 0.06 nM.
In the case of `COCCOCCOc1cc(COc2ccc3cc2C[C@H](C(=O)O)Oc2ncnc4sc(-c5ccc(F)cc5)c(c24)-c2c(C)c(Cl)c(c(Cl)c2C)O[C@H](CN2CCN(C)CC2)CO3)nc(-c2ccccc2OC)n1` [Example 169, (7R,16R)-19,23-dichloro-1-(4-fluorophenyl)-10-({6-[2-(2-methoxyethoxy)ethoxy]-2-(2-methoxyphenyl)pyrimidin-4-yl}methoxy)-20,22-dimethyl-16-[(4-methylpiperazin-1-yl)methyl]-7,8,15,16-tetrahydro-18,21-etheno-13,9-(metheno)-6,14,17-trioxa-2-thia-3,5-diazacyclononadeca[1,2,3-cd]indene-7-carboxylic Acid], the IC50 [1] is reported as 0.000306 µM, the IC50 [2] is reported as 0.00115 µM and the Ki (GST-MCL-1; [3]) is reported as 0.631 nM. It also gave a Ki (GST-MCL-1; [4]) of 0.03 nM.
In the case of `Cc1c(Cl)c2c(Cl)c(C)c1-c1c(-c3ccc(F)cc3)sc3ncnc(c13)O[C@@H](C(=O)O)Cc1cc(ccc1OCc1ccnc(-c3ccc(OCCN4CC5CCC(C4)O5)cc3)n1)OC[C@@H](CN1CCN(C)CC1)O2` [Example 170, (7R,16R)-19,23-dichloro-1-(4-fluorophenyl)-20,22-dimethyl-16-[(4-methylpiperazin-1-yl)methyl]-10-[(2-{4-[2-(8-oxa-3-azabicyclo[3.2.1]octan-3-yl)ethoxy]phenyl}pyrimidin-4-yl)methoxy]-7,8,15,16-tetrahydro-18,21-etheno-13,9-(metheno)-6,14,17-trioxa-2-thia-3,5-diazacyclononadeca[1,2,3-cd]indene-7-carboxylic Acid], the IC50 [1] is reported as 0.000646 µM, the IC50 [2] is reported as 0.00278 µM and the Ki (GST-MCL-1; [3]) is reported as 1.85 nM. For the same molecule, the Ki (GST-MCL-1; [4]) was 0.042 nM.
For `Cc1c(Cl)c2c(Cl)c(C)c1-c1c(-c3ccc(F)cc3)sc3ncnc(c13)O[C@@H](C(=O)O)Cc1cc(ccc1OCc1ccnc(N3CC4CC(C4)C3)n1)OC[C@@H](CN1CCN(C)CC1)O2` [Example 171, (7R,16R)-10-{[2-(3-azabicyclo[3.1.1]heptan-3-yl)pyrimidin-4-yl]methoxy}-19,23-dichloro-1-(4-fluorophenyl)-20,22-dimethyl-16-[(4-methylpiperazin-1-yl)methyl]-7,8,15,16-tetrahydro-18,21-etheno-13,9-(metheno)-6,14,17-trioxa-2-thia-3,5-diazacyclononadeca[1,2,3-cd]indene-7-carboxylic Acid], the IC50 [1] was 0.00112 µM, the IC50 [2] was 0.00757 µM and the Ki (GST-MCL-1; [3]) was 3.98 nM. The Ki (GST-MCL-1; [4]) was 0.1 nM.
`Cc1c(Cl)c2c(Cl)c(C)c1-c1c(-c3ccc(F)cc3)sc3ncnc(c13)O[C@@H](C(=O)O)Cc1cc(ccc1OCc1ccnc(N3C[C@H]4C[C@@H](C3)C4(F)F)n1)OC[C@@H](CN1CCN(C)CC1)O2` [Example 172, (7R,16R)-19,23-dichloro-10-({2-[(1R,5S)-6,6-difluoro-3-azabicyclo[3.1.1]heptan-3-yl]pyrimidin-4-yl}methoxy)-1-(4-fluorophenyl)-20,22-dimethyl-16-[(4-methylpiperazin-1-yl)methyl]-7,8,15,16-tetrahydro-18,21-etheno-13,9-(metheno)-6,14,17-trioxa-2-thia-3,5-diazacyclononadeca[1,2,3-cd]indene-7-carboxylic Acid] gave an IC50 [1] of 0.000966 µM, an IC50 [2] of 0.00524 µM and a Ki (GST-MCL-1; [3]) of 2.74 nM. For the same molecule, the Ki (GST-MCL-1; [4]) was 0.141 nM.
`Cc1c(Cl)c2c(Cl)c(C)c1-c1c(-c3ccc(F)cc3)sc3ncnc(c13)O[C@@H](C(=O)O)Cc1cc(ccc1OCc1ccnc(-c3ccc(OC[C@H]4CN(C)CCCO4)cc3)n1)OC[C@@H](CN1CCN(C)CC1)O2` [Example 175, (7R,16R)-19,23-dichloro-1-(4-fluorophenyl)-20,22-dimethyl-10-{[2-(4-{[(2R)-4-methyl-1,4-oxazepan-2-yl]methoxy}phenyl)pyrimidin-4-yl]methoxy}-16-[(4-methylpiperazin-1-yl)methyl]-7,8,15,16-tetrahydro-18,21-etheno-13,9-(metheno)-6,14,17-trioxa-2-thia-3,5-diazacyclononadeca[1,2,3-cd]indene-7-carboxylic Acid] was tested, and the IC50 [1] was 0.00164 µM, the IC50 [2] was 0.00573 µM and the Ki (GST-MCL-1; [3]) was 0.122 nM. It also gave a Ki (GST-MCL-1; [4]) of under 0.01 nM.
For `COCCOCCOCCOc1cncc(COc2ccc3cc2C[C@H](C(=O)O)Oc2ncnc4sc(-c5ccc(F)cc5)c(c24)-c2c(C)c(Cl)c(c(Cl)c2C)O[C@H](CN2CCN(C)CC2)CO3)n1` [Example 176, (7R,16R)-19,23-dichloro-1-(4-fluorophenyl)-10-[(6-{2-[2-(2-methoxyethoxy)ethoxy]ethoxy}pyrazin-2-yl)methoxy]-20,22-dimethyl-16-[(4-methylpiperazin-1-yl)methyl]-7,8,15,16-tetrahydro-18,21-etheno-13,9-(metheno)-6,14,17-trioxa-2-thia-3,5-diazacyclononadeca[1,2,3-cd]indene-7-carboxylic Acid], the IC50 [1] was 0.00386 µM, the IC50 [2] was 0.0073 µM and the Ki (GST-MCL-1; [3]) was 0.868 nM. The Ki (GST-MCL-1; [4]) was 0.151 nM.
